Experimental findings from paper PMC12858405, “Ideal efficacy photoswitching for chromocontrol of TRPC4/5 channel functions in live tissues” (Nature Chemical Biology, 2026) are described below.

The assay concerns the target T1, mouse TRPC4β (Mus musculus, UniProt Q9QUQ5).
T1 construct: expressed in transfected cells; host or cells: HEK293 (ATCC CRL 1573), stably transfected, tetracycline-induced
T1 sequence (Q9QUQ5 1-890 isoform Q9QUQ5-2): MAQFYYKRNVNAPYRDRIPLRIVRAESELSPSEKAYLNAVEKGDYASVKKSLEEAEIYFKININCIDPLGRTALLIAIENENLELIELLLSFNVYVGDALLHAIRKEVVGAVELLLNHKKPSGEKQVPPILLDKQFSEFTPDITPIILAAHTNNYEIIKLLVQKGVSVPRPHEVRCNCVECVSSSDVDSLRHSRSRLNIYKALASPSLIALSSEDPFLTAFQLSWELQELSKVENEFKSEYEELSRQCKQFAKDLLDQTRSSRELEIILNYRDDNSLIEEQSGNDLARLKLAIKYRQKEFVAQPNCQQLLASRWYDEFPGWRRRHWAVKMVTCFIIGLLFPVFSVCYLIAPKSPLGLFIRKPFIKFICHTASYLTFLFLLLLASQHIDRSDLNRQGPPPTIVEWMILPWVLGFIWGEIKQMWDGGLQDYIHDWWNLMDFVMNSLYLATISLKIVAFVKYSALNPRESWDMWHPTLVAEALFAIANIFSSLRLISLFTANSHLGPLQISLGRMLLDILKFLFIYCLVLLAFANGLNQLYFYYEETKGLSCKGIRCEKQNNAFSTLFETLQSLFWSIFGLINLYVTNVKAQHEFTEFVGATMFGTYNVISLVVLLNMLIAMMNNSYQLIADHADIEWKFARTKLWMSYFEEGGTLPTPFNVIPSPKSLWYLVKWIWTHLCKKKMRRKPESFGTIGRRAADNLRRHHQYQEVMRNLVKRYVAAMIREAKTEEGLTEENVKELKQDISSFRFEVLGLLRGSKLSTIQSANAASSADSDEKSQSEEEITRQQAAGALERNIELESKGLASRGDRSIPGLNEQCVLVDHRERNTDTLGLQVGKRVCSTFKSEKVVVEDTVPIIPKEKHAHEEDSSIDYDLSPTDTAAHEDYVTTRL
Put plainly: FLIPR Ca2+ influx assay (Fluo-4) with 365/447 nm photoswitching, HEK293 stably expressing mouse TRPC4β. The format is cell-based. As to conditions: for EC50: Z* = mostly-Z PSS under 365 nm LED, Fluo-4-loaded cells, read-out: Agonistic EC50 (365 nm) TRPC4. An excerpt:
We initially screened for the photoswitchability of activity in cells using a fluorometric imaging plate reader (FLIPR) calcium flux assay, with HEK293 cells stably expressing mouse TRPC4β or mouse TRPC5. Note, however, that the parallel-throughput FLIPR setup is limited to use fixed light-emitting diodes at 365 nm (good Z) and 447 nm (suboptimal E), which, combined with the slowness of the onset and recovery of the fluorescence readout for calcium, causes the FLIPR results to underestimate the reagents’ true speed, degree and completion of TRPC chromocontrol (shown later). […]
3 Cultured Cell Lines (primarily for Fig. 1 and Fig. 2)
3.1 FLIPR Ca2+ influx assay in cell suspensions.
We initially screened for photoswitchability of activity in cells, using a fluorometric imaging plate reader (FLIPR) calcium flux assay, with human embryonic kidney cell line HEK293 stably transfected to express mouse TRPC4β- or TRPC5-CFP fusion protein (HEKmTRPC4β-CFP / HEKmTRPC5-CFP, HEK293 obtained from ATCC CRL 1573). The FLIPR setup provides high-content data, but it is limited to using LED wavelengths of 365 nm (best-Z) and 447 nm (suboptimal-E), while imaging at 470 nm excitation (Fluo-4 AM as Ca2+ indicator; this imaging light counteracts both PSSs). Therefore, we expected the FLIPR results to under-estimate the true chromocontrol power accessible to the reagents.
Cells were grown to 70%-90% confluency in a 75-cm2 culture flask, trypsinised, washed and resuspended in BSA-containing (0.1%) HBS, and supplemented with 3 µM Fluo-4/AM. Stably TRPC-transfected cells were induced with tetracycline 24 h prior to the experiments.42,43 After incubation at 37°C for 30 min [Fluo-4 loading], cells were again washed, resuspended, and dispensed (40 µl/well) into black pigmented, clear-bottom 384-well plates (Greiner µ-clear). To image the Fluo-4 fluorescence during the application and photoswitching of test compounds, these plates were first mounted to a Tecan Fluent 480 (Tecan, Männedorf, Switzerland) liquid handling device, equipped with a 384-tip multichannel arm and a gripper arm. A custom-made plate-imaging device was used for photoswitching during fluorescence imaging, which features LED-based excitation modules (365 nm and 447 nm used here for photoswitching, and 470 nm used here for Fluo-4 readout) projected onto the bottom of the microwell plate, with a cooled scientific complementary metal oxide sensor (sCMOS) camera (Zyla 5.5, Andor, Belfast, UK) equipped with a Nokton 42.5 mm f/0.95 (Voigtlaender, Fürth, Germany) for detection. The LEDs were controlled with an Arduino device and constant current drivers (1 A for 365 and 470 nm LEDs; 3 A for 447 nm LED); detection was under the control of Micromanager 2.0 software. Compounds were serially diluted and applied to the Fluo-4-loaded cell suspensions inside this custom plate-imaging device, then fluorescence intensities (under 470 nm excitation) were continuously recorded during programmed illuminations e.g. with alternating 365 nm and 447 nm phases.
Concentration-response curves for the Z-isomers (channel activation) were then constructed from the maximal signals during 365 nm phases, after a suitable number of "priming" cycles to allow the system to reach stable performance (Supplementary Fig. 13).
All experiments were conducted as a minimum of 3 independent experiments with each experiment averaging data in technical duplicates.
Cellular TRPC4 photoswitching: HEK cell Ca2+ influx photomodulation […]
Supplementary Figure 12. […]

A value given as a limit tells only on which side of the number the result lay.

`Cn1c(=O)n(CCCO)c(=O)c2c1nc(Oc1ccc(/N=N/c3ccccc3)c(OC(F)(F)F)c1)n2Cc1ccc(Cl)cc1` [E-AzPico]: the “Effect of E isomer alone on TRPC4” value (12 pM to […], before 365-nm illumination) is recorded as “no effect”.
By EC50 is commonly meant the midpoint of the concentration-response curve. As for `Cn1c(=O)n(CCCO)c(=O)c2c1nc(Oc1ccc(N=Nc3ccccc3)c(OC(F)(F)F)c1)n2Cc1ccc(Cl)cc1` [AzPico], the half-maximal effective concentration (EC50) is 3 nM.
`Cn1c(=O)n(CCCO)c(=O)c2c1nc(Oc1ccc(/N=N\c3ccccc3)c(Cl)c1)n2Cc1ccc(Cl)cc1` [Z*-AzHC]: the concentration for a half-maximal effect (EC50) is > 1000 nM. In addition, the “Activity of Z isomer on TRPC4” value (into the micromolar range, 365 nm) is “completely inactive”.
